Experimental findings from patent US20260151457A1, “Peptides and Fragments for Treating Diabetes and Associated Metabolic Diseases” (Betavive Ltd., priority 2024, published 2026) are described below.

One data set concerns β-MIN6 cells. Kind of data set: Insulin secretion of β-MIN6 cells following glucose induction. The data set is classed as cell-based, mouse. The settings on record: IGF-2 5 nM, 20 nM, 80 nM, 1 week treatment. The source says:
β-MIN6 cells serve as an in vitro model of mouse pancreatic islets. β-MIN6 cells were used as an in vitro model to measure the effects of treatment with IGF-2.

Data set [1] deals with STZ-treated mice. Kind of data set: Serum insulin and c-peptide levels in STZ-treated mice four weeks after IGF-2 treatment. It is filed as in vivo. Particulars: four weeks post treatment. The procedure:
Fasting blood glucose levels (mg/dL) were determined using the Accu-Chek Performa glucometer (Roche Diagnostics, Mannheim, Germany). After approximately two weeks of stable hyperglycemia, C57BL/6 STZ mice received exogenous injections of recombinant human IGF-2 (0.3-12 mg/kg/day injection) intraperitoneally for 5-10 consecutive days. During post-treatment follow-up period and upon termination, mice were tested for: fasting glucose, body weight, glucose tolerance test (IPGTT), serum C-peptide level, serum insulin level, and full blood and histological analysis (CBC, Chemistry, Insulin IHC and H&E).
C-peptide is a biomarker used to assess pancreatic beta cell function and is normally produced in equimolar amounts to endogenous insulin. Leighton et al., A Practical Review of C-Peptide Testing in Diabetes, Diabetes Ther. 2017 June; 8 (3): 475-487.

The subject of a further data set is db/db mice. Kind of data set: 14 hour fasting blood glucose in db/db mice treated with IGF-2. The data set is classed as in vivo. The procedure: db/db mice are bred to have a leptin deficiency, increasing susceptibility of the mice to obesity, insulin resistance, and type 2 diabetes (T2D).
In this experiment, one group of db/db mice was injected with 3000 μg/kg/day of IGF-2 for 68 days, a second group of db/db mice was injected with 12000 μg/kg/day of IGF-2 for 66 days, and a third group of db/db mice was injected with saline once a day for 68 days.
In one experiment (left panel), one group of db/db mice was injected with a daily dose of 12000 μg/kg of IGF-2 divided in two injections per day for 70 days, while another group of db/db mice was injected with saline. […] In another experiment (right panel), one group of db/db mice was injected with a daily dose of 12000 μg/kg of IGF-2 divided in two injections per day for 35 days, while another group of db/db mice was injected with saline.
In one exemplary experiment, db/db mice were treated with a 12,000 μg/kg daily dose for 70 days with 70 days of follow up (during which IGF-2 was not administered). All the treated mice maintained normoglycemia for at least 50 days following treatment. In another exemplary experiment, db/db mice were treated with a 12,000 μg/kg daily dose for 35 days with 35 days of follow up (during which IGF-2 was not administered). All the treated mice maintained normoglycemia for 35 days following treatment.

A further data set relates to STZ-treated mouse islets. Kind of data set: MTT viability of STZ-treated mouse islets. The data set is classed as cell-based. Particulars: increasing concentrations. The source says: Yellow dye MTT is converted to a purple dye by mitochondrial reductase in viable cells. Therefore, the amount of purple dye present determined by measuring optical density of cells at 570 nm serves as a measurement of cell viability.

For data set [2], the system named is NOD mice. Kind of data set: Serum insulin / insulin secretion in NOD mice treated with IGF-2. It is filed as in vivo. As to the method:
FIG. 30B depicts the levels of serum insulin in NOD mice measured two weeks after a 66 day course of treatment using IGF-2. Mice that were treated with 3000 μg/kg/day of IGF-2 had serum insulin levels that were about 4-fold higher than the control mice.
(§1) In one exemplary experiment, NOD mice were treated with a 3000 μg/kg daily doses of IGF-2 for 150 days. ⅘ of the treated mice maintained normoglycemia compared to ¼ of the control mice. In another exemplary experiment, NOD mice were treated with a 3000 μg/kg daily dose of IGF-2 for 75 days with follow-up glucose measurements taken for an additional 90 days (during which IGF-2 was not administered). ⅝ of the treated mice maintained normoglycemia compared to 2/11 of the control mice. The average insulin secretion of the treated mice in both of these experiments was five times greater than the control mice.

Data set [3] has as its system STZ-treated mice. Kind of data set: Short term effects of a single IGF-2 injection on glucose and IGF-2 levels in STZ-treated mice. The data set is classed as in vivo. The procedure: More specifically, the top panel illustrates the drop in glucose blood levels in three STZ-treated mice after receiving a 800 μg/kg/day dose of IGF-2 over a 240 minute time course. […] IGF-2 is part of a complex system comprising IGF-1 and IGF-2 along with binding proteins, proteases and other interacting molecules. A single 800 μg/kg dose of IGF-2 injected intraperitoneally lowers hyperglycemic blood glucose levels of 300-500 mg/dl to a normal level (100-200 mg/dL) for periods of over four hours. Normoglycemia is maintained while total serum IGF-2 is reduced to very low levels. […] Without being bound by this theory, it is believed that a slow release of IGF-2 from a serum complex can maintain normal blood glucose levels.

Data set [4] relates to NOD mice. Briefly: Incidence of spontaneous autoimmune type 1 diabetes in NOD mice treated with IGF-2. It is filed as in vivo. As to the method: Non-Obese Diabetic (NOD) mice are a polygenic model for spontaneous autoimmune type 1 diabetes (T1D). NOD mice have an elevated risk for development of autoimmune type 1 diabetes. Thus, NOD mice were used to determine whether treatment IGF-2 reduces spontaneous development of type 1 diabetes.
In this experiment, one group of NOD mice (right panel) was injected with 3000 μg/kg of IGF-2 on each of 76 consecutive days, and a second group of NOD mice (left panel) was injected with saline. […] More specifically, at the end of the 76 days of treatment, only two of the treated mice had developed high glucose levels.
FIG. 30A depicts how many NOD mice have developed autoimmune type I diabetes during an initial 66 days of treatment with IGF-2, and at various intervals post-treatment. In this experiment, one group of NOD mice was injected with 3000 μg/kg of IGF-2 on each of 66 consecutive days, and a second group of NOD mice was injected with saline.
as §1

The mark [5] stands for this setting: single 800 μg/kg dose injected intraperitoneally.

As for insulin-like growth factor 2 [IGF-2], the “Insulin secretion following glucose induction” value in the data set on β-MIN6 cells is listed as “increases insulin secretion (following glucose induction) in a dose-dependent manner”. Moreover, the “Increase in c-peptide levels” value with STZ-treated mice [1] (four STZ-treated mice) is reported as 12 fold. Moreover, the “Increase in serum insulin compared to STZ treated control mice” value in the data set with STZ-treated mice [1] (permanently cured mice) was 50%. In addition, the “14 hour fasting blood glucose levels” value in the data set on db/db mice (3000 μg/kg/day for 68 days, first group b178, second group b179) is reported as “reduced blood glucose levels (14 hour fasting blood glucose levels) to a normal range even after the end of the 68 day treatment period”; in the data set with db/db mice (12000 μg/kg daily in two injections per day for 35 days), “reduced blood glucose levels (14 hour fasting blood glucose levels) to a normal range even after the end of the 35 day treatment period”; with db/db mice (12000 μg/kg daily in two injections per day for 70 days), “reduced blood glucose levels (14 hour fasting blood glucose levels) to a normal range even after the end of the 70 day treatment period”; in the data set on db/db mice (12000 μg/kg/day for 66-68 days, first group b178, second group b179), “reduced blood glucose levels (14 hour fasting blood glucose levels) to a normal range even after the end of the 68 day treatment period”. In addition, the “Time all treated mice maintained normoglycemia following treatment” value in the data set on db/db mice (12,000 μg/kg daily for 35 days, 35 days of follow up) is on record as 35 days; with db/db mice (12,000 μg/kg daily for 70 days, 70 days of follow up) it was “at least 50 days”. For the same substance, in the data set on STZ-treated mouse islets, the “Mouse islet viability (MTT, optical density at 570 nm)” value is recorded as “increased in a dose dependent manner”. In addition, in the data set on NOD mice [2] (3000 μg/kg/day for 66 days, measured two weeks after treatment), the “Serum insulin levels relative to the control mice” value was “about 4 fold”. The “Average insulin secretion of the treated mice relative to the control mice” value in the data set with NOD mice [2] (both experiments (150 days; 75 days plus 90 days follow-up)) is “five”. Also, in the data set on STZ-treated mice [3] (800 μg/kg dose, 240 minute time course), the “Free IGF-2 levels relative to total IGF-2” value is “a small fraction of the total IGF-2 concentration”. Further, the “Blood glucose level reached from hyperglycemic 300-500 mg/dl” value in the data set with STZ-treated mice [3] (setting [5]) is 100 to 200 mg/dL. Moreover, the “Period of normal blood glucose level after a single dose” value in the data set on STZ-treated mice [3] (setting [5]) is listed as “over four”. For the same substance, the “Fraction of the treated mice that maintained normoglycemia” value in the data set with NOD mice [4] (3000 μg/kg daily for 75 days, follow-up for an additional 90 days) was “⅝”; in the data set with NOD mice [4] (3000 μg/kg daily for 150 days) it was “⅘”. The “Incidence of spontaneous autoimmune type 1 diabetes” value with NOD mice [4] (3000 μg/kg on each of 66 consecutive days and post-treatment) is given as “significantly reduced”. In addition, in the data set on NOD mice [4] (3000 μg/kg on each of 76 consecutive days), the “Incidence of spontaneous autoimmune attack” value is reported as “reduced dramatically”. Moreover, the “Number of treated mice that had developed high glucose levels” value in the data set on NOD mice [4] (at the end of the 76 days of treatment with 3000 μg/kg) is given as “two”.
